Laboratory results: ChEMBL document CHEMBL3244333, “2-Acetylpyridine thiosemicarbazones. 2. N4,N4-Disubstituted derivatives as potential antimalarial agents” (J Med Chem, 1979)
Calls of active or inactive are those of the source. The calls are words filed in the database; no cut-off is given here.

Key:
Plasmodium berghei [1] = test: Antimalarial activity against Plasmodium berghei KBG 173 infected in mouse assessed as increase of mean survival time at 40 mg/kg; assay type: functional
Mus musculus [2] = test: Toxicity in Plasmodium berghei KBG 173 infected mouse at 40 mg/kg; assay type: organism-based; design: dose 40 mg/kg; conditions: in vivo
Plasmodium berghei [3] = test: Antimalarial activity against Plasmodium berghei KBG 173 infected in mouse assessed as increase of mean survival time at 160 mg/kg; assay type: functional
Mus musculus [4] = test: Toxicity in Plasmodium berghei KBG 173 infected mouse at 160 mg/kg; assay type: organism-based; design: dose 160 mg/kg; conditions: in vivo
Plasmodium berghei [5] = test: Antimalarial activity against Plasmodium berghei KBG 173 infected in mouse assessed as cured animal from parasite infection at 160 mg/kg; assay type: functional, organism-based; design: dose 160 mg/kg
Plasmodium berghei [6] = test: Antimalarial activity against Plasmodium berghei KBG 173 infected in mouse assessed as increase of mean survival time at 640 mg/kg; assay type: functional
Mus musculus [7] = test: Toxicity in Plasmodium berghei KBG 173 infected mouse at 640 mg/kg; assay type: organism-based; design: dose 640 mg/kg; conditions: in vivo
Plasmodium berghei [8] = test: Antimalarial activity against Plasmodium berghei KBG 173 infected in mouse assessed as cured animal from parasite infection at 640 mg/kg; assay type: functional, organism-based; design: dose 640 mg/kg
Plasmodium berghei [9] = test: Antimalarial activity against Plasmodium berghei KBG 173 infected in mouse assessed as cured animal from parasite infection at 40 mg/kg; assay type: functional, organism-based; design: dose 40 mg/kg
Plasmodium berghei [10] = test: Antimalarial activity against Plasmodium berghei KBG 173 infected in mouse assessed as cured animal from parasite infection at 80 mg/kg; assay type: functional, organism-based; design: dose 80 mg/kg
Plasmodium berghei [11] = test: Antimalarial activity against Plasmodium berghei KBG 173 infected in mouse assessed as cured animal from parasite infection at 320 mg/kg; assay type: functional, organism-based; design: dose 320 mg/kg
Mus musculus [12] = test: Toxicity in Plasmodium berghei KBG 173 infected mouse at 320 mg/kg; assay type: organism-based; design: dose 320 mg/kg; conditions: in vivo

| SMILES | Survival (Plasmodium berghei [1]) [days] | Activity (Mus musculus [2]) | Survival (Plasmodium berghei [3]) [days] | Activity (Mus musculus [4]) | Activity (Plasmodium berghei [5]) | Survival (Plasmodium berghei [6]) [days] | Activity (Mus musculus [7]) | Activity (Plasmodium berghei [8]) | Activity (Plasmodium berghei [9]) | Activity (Plasmodium berghei [10]) | Activity (Plasmodium berghei [11]) | Activity (Mus musculus [12]) |
| --- | --- | --- | --- | --- | --- | --- | --- | --- | --- | --- | --- | --- |
| C/C(=N/NC(=S)N(C)C)c1ccccn1 | 0.5 | Toxic | 0 | Toxic | Active | 0 | Toxic | Active | – | – | – | – |
| C/C(=N/NC(=S)N1CCN(c2ccc(F)cc2)CC1)c1ccccn1 | – | – | – | – | Active | 9 | – | Active | Active | – | – | – |
| C/C(=N/NC(=S)N1CCc2ccccc2C1)c1ccccn1 | 3.5 | – | 7.7 | – | Active | – | – | Active | – | – | – | – |
| C/C(=N/NC(=S)N1CCCCCCCC1)c1ccccn1 | -0.3 | – | 1.7 | – | – | 9 | – | Active | – | – | – | – |
| C/C(=N/NC(=S)N(C)C1CCCCC1)c1ccccn1 | 3.7 | – | – | Toxic | Active | -0.3 | Toxic | – | – | – | – | – |
| C/C(=N/NC(=S)N(C)CC(O)C(O)C(O)C(O)CO)c1ccccn1 (stereo not drawn) | 0.2 | – | 1.4 | – | – | 0.3 | Toxic | – | – | – | – | – |
| C/C(=N/NC(=S)N1CCCN(C)CC1)c1ccccn1 | 0.8 | Toxic | 0.8 | Toxic | – | 0 | Toxic | – | – | – | – | – |
| C/C(=N/NC(=S)N1CCCC(C)C1)c1ccccn1 (stereo not drawn) | 4.1 | – | – | Toxic | Active | 0 | Toxic | Active | – | – | – | – |
| C/C(=N/NC(=S)N1CCC1)c1ccccn1 | 1.7 | – | 0 | Toxic | Active | 0 | Toxic | Active | – | – | – | – |
| C/C(=N/NC(=S)N(CC(C)C)CC(C)C)c1ccccn1 | -0.2 | – | 0.8 | Toxic | – | 0.5 | Toxic | – | – | – | – | – |
| C/C(=N/NC(=S)N1CCC(O)CC1)c1ccccn1 | -0.1 | Toxic | 0 | Toxic | Active | 0.6 | Toxic | – | – | – | – | – |
| CCCN(CCC)C(=S)N/N=C(/C)c1ccccn1 | 0 | Toxic | 0 | Toxic | Active | 3 | – | – | Active | – | – | – |
| C/C(=N/NC(=S)N1CCCCC1C)c1ccccn1 (stereo not drawn) | – | – | 0 | Toxic | Active | 0 | Toxic | Active | Active | – | – | – |
| C/C(=N/NC(=S)N1CC=CCC1)c1ccccn1 | 4 | – | 1.4 | Toxic | – | 7.4 | Toxic | – | – | – | – | – |
| C/C(=N/NC(=S)N1CCN(c2ccccn2)CC1)c1ccccn1 | – | – | – | – | Active | – | – | Active | Active | Active | Active | – |
| CCOC(=O)N1CCN(C(=S)N/N=C(/C)c2ccccn2)CC1 | – | Toxic | 0 | Toxic | Active | 0 | Toxic | Active | Active | – | – | – |

| SMILES | Survival (Plasmodium berghei [1]) [days] | Activity (Mus musculus [2]) | Survival (Plasmodium berghei [3]) [days] | Activity (Mus musculus [4]) | Activity (Plasmodium berghei [5]) | Survival (Plasmodium berghei [6]) [days] | Activity (Mus musculus [7]) | Activity (Plasmodium berghei [8]) | Activity (Plasmodium berghei [9]) | Activity (Plasmodium berghei [10]) | Activity (Plasmodium berghei [11]) | Activity (Mus musculus [12]) |
| --- | --- | --- | --- | --- | --- | --- | --- | --- | --- | --- | --- | --- |
| C/C(=N/NC(=S)N(C)CCc1ccccc1)c1ccccn1 | 0.4 | – | 7.2 | – | Active | – | – | Active | – | – | – | – |
| C/C(=N/NC(=S)N1CCC2(CC1)OCCO2)c1ccccn1 | 0 | Toxic | 0 | Toxic | Active | 0 | Toxic | – | Active | – | – | – |
| C/C(=N/NC(=S)N(Cc1ccccc1)Cc1ccccc1)c1ccccn1 | -0.1 | – | 1.6 | Toxic | – | -0.2 | Toxic | – | – | – | – | – |
| C/C(=N/NC(=S)N1CCN(c2ccccn2)CC1)c1ccccn1.Cl | 3.2 | – | – | – | – | 0 | Toxic | – | – | – | – | – |
| CCC1CCCCN1C(=S)N/N=C(/C)c1ccccn1 (stereo not drawn) | 5.6 | – | – | – | Active | -0.2 | Toxic | – | – | – | – | – |
| C/C(=N/NC(=S)N1CCC(C)CC1)c1ccccn1 | – | – | 0 | Toxic | Active | 0 | Toxic | Active | Active | – | – | – |
| C/C(=N/NC(=S)N1CCC(c2ccccc2)CC1)c1ccccn1 | 0.4 | – | – | – | Active | – | – | Active | – | Active | Active | – |
| C/C(=N/NC(=S)N1CCCCCCCCCCCC1)c1ccccn1 | 0 | – | 0.1 | – | – | 2.9 | – | – | – | – | – | – |
| C/C(=N/NC(=S)N1CCc2ccccc21)c1ccccn1 | 0.5 | – | 0.3 | Toxic | – | 0.3 | Toxic | – | – | – | – | – |
| C/C(=N/NC(=S)N1CCCCCCC1)c1ccccn1 | 0.6 | – | – | – | Active | – | – | Active | – | Active | Active | – |
| C/C(=N/NC(=S)N1CCCCCC1)c1ccccn1 | 6.2 | – | – | Toxic | Active | – | Toxic | Active | Active | Active | Active | Toxic |
| C/C(=N/NC(=S)N1CCN(C)CC1)c1ccccn1 | 0 | Toxic | 0 | Toxic | Active | 0 | Toxic | – | Active | – | – | – |
| C/C(=N/NC(=S)N1CCCCC1)c1ccccn1 | -0.4 | – | -0.4 | – | – | 0 | – | – | – | – | – | – |
| C/C(=N/NC(=S)N1CC(C)OC(C)C1)c1ccccn1 (stereo not drawn) | – | Toxic | 0 | Toxic | Active | 0 | Toxic | Active | Active | – | – | – |
| C/C(=N/NC(=S)N1CCCC1)c1ccccn1 | 8.9 | Toxic | 0 | Toxic | Active | 0 | Toxic | Active | Active | – | – | – |
